# Laboratory results reported in US20210221848A1, “POLYMYXIN DERIVATIVES AND THEIR USE IN COMBINATION THERAPY TOGETHER WITH DIFFERENT ANTIBIOTICS” (priority 2014, published 2021).
# Like-named read-outs stand apart in the source and are kept apart here.
# Assays:
# A. baumannii [1] = assay: MIC in 1:1 (wt:wt) combination with Rifampicin; format: cell-based, Acinetobacter baumannii; conditions: 1:1 (wt:wt) with Rifampicin, total drug concentration
# Protocol: The inoculum was prepared by making a direct suspension of isolated colonies (selected from an 18-24 hour Mueller-Hinton agar plate) adjusted to the 0.5 McFarland standard. […] The assays were performed in duplicate. […] In cases where the duplicate values varied by less than 2-fold, the lower of the two values is reported. If a variation of greater than 2-fold was observed, the assay was considered non-valid. Several of the compounds were subjected to multiple tests, and where this is the case, the MIC reflects the modal value obtained.
# MIC values (microgram/mL) refer to the total drug concentration (i.e. test agent plus Rifampicin).
# [2] = test system: A. baumanii strains with elevated MICs to Polymyxin B; assay: MIC against strains with elevated MICs to Polymyxin B; format: cell-based, Acinetobacter baumannii
# In short: (§1)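 Reported MIC is the lower of duplicates agreeing within 2-fold, or the mode where compounds were tested repeatedly. Assays with greater than 2-fold duplicate variation were rejected. Colonies grown 18-24 hours on Mueller-Hinton agar were suspended to 0.5 McFarland as inoculum.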
# A. baumannii [3] = test system: A. baumannii
# E. coli = assay: MIC in the presence of a fixed concentration (2 μg/mL) of Rifampicin; format: cell-based, Escherichia coli; conditions: Rifampicin 2 μg/mL, Table 5C
# [4] = test system: P. aeruginosa strains with elevated MICs to Polymyxin B; assay: MIC against strains with elevated MICs to Polymyxin B; format: cell-based, Pseudomonas aeruginosa; conditions: for MIC P. aeruginosa 065: strain 065, elevated MIC to Polymyxin B; for MIC P. aeruginosa 066: strain 066, elevated MIC to Polymyxin B; for MIC P. aeruginosa 067: strain 067, elevated MIC to Polymyxin B
# In short: as §1
# P. aeruginosa ATCC 27853 = assay: In vivo efficacy, thigh infection in mice, IV dosing, 9 h model; design: species or system Pseudomonas aeruginosa; conditions: mouse thigh
# Protocol: Compounds were administered in solution by intravenous (IV) bolus injection into the lateral tail vein. […] At 1 hour post infection, 4 animals were humanely euthanized using pentabarbitone overdose to provide a pre-treatment control group. At 9 hours post infection, the clinical condition of all animals was assessed prior to them being humanely euthanized by pentabarbitone overdose. Animal weight was determined before both thighs were removed and weighed individually. Individual thigh tissue samples were homogenized in ice cold sterile phosphate buffered saline. Thigh homogenates were then quantitatively cultured onto cystine lactose electrolyte deficient (CLED) agar and incubated at 37° C. for 24 hours before colonies were counted.
# [5] = test system: Acinetobacter baumannii NCTC 13301; conditions: mouse thigh, 16 h model
substance,measurement,setting,value
"Polymyxin B [PMB, reference compound]","MIC in 1:1 combination with rifampicin, A. baumannii 053",A. baumannii [1]; A. baumannii 053,≤0.5 microgram/mL
same,"MIC in 1:1 combination with rifampicin, A. baumannii 056",A. baumannii [1]; A. baumannii 056,≤0.5 microgram/mL
same,MIC A. baumannii 053,"[2]; strain 053, elevated MIC to Polymyxin B, Table 6D",128 micrograms/mL
same,MIC A. baumanii 053,"[2]; strain 053, elevated MIC to Polymyxin B, Table 6F",128 micrograms/mL
same,MIC A. baumannii 056,"[2]; strain 056, elevated MIC to Polymyxin B, Table 6D",32 micrograms/mL
same,MIC A. baumanii 056,"[2]; strain 056, elevated MIC to Polymyxin B, Table 6F",32 micrograms/mL
same,MIC A. baumannii 068,"[2]; strain 068, elevated MIC to Polymyxin B, Table 6D",8 micrograms/mL
same,MIC A. baumanii 068,"[2]; strain 068, elevated MIC to Polymyxin B, Table 6F",8 micrograms/mL
same,MIC A. baumannii 070,"[2]; strain 070, elevated MIC to Polymyxin B, Table 6D",32 micrograms/mL
same,MIC A. baumanii 070,"[2]; strain 070, elevated MIC to Polymyxin B, Table 6F",32 micrograms/mL
same,MIC,K. pneumoniae; K. pneumoniae ATCC 4352,0.25 µg/mL
same,"MIC, K. pneumoniae ATCC 4352","K. pneumoniae; K. pneumoniae ATCC 4352, absence of a second agent, Table 6B",0.25 micrograms/mL
same,MIC,K. pneumoniae; K. pneumoniae ATCC BAA-2146,0.5 µg/mL
same,"MIC, K. pneumoniae ATCC BAA-2146","K. pneumoniae; K. pneumoniae ATCC BAA-2146, absence of a second agent, Table 6B",0.5 micrograms/mL
same,"MIC, K. pneumoniae ATCC 4352","K. pneumoniae; strain ATCC 4352, compound alone",0.25 micrograms/mL
same,"MIC, K. pneumoniae ATCC BAA-2146","K. pneumoniae; strain ATCC BAA-2146, compound alone",0.5 micrograms/mL
same,MIC,A. baumannii [3]; A. baumannii ATCC BAA-747,0.25 µg/mL
same,"MIC, A. baumannii ATCC BAA-747","A. baumannii [3]; A. baumannii ATCC BAA-747, absence of a second agent, Table 6B",0.25 micrograms/mL
same,MIC,A. baumannii [3]; A. baumannii NCTC 13424,0.5 µg/mL
same,"MIC, A. baumannii NCTC 13424","A. baumannii [3]; A. baumannii NCTC 13424, absence of a second agent, Table 6B",0.5 micrograms/mL
same,"MIC, A. baumannii ATCC BAA-747","A. baumannii [3]; strain ATCC BAA-747, compound alone",0.25 micrograms/mL
same,"MIC, A. baumannii NCTC 13424","A. baumannii [3]; strain NCTC 13424, compound alone",0.5 micrograms/mL
same,"MIC in combination with Rifampicin, E. coli ATCC 25922",E. coli; E. coli ATCC 25922,≤0.015 micrograms/mL
same,"MIC in combination with Rifampicin, E. coli NCTC 13441",E. coli; E. coli NCTC 13441,0.03 micrograms/mL
same,MIC P. aeruginosa 065,[4]; Table 6D,4 micrograms/mL
same,MIC P. aeruginosa 065,[4]; Table 6F,4 micrograms/mL
same,MIC P. aeruginosa 066,[4]; Table 6D,8 micrograms/mL
same,MIC P. aeruginosa 066,[4]; Table 6F,8 micrograms/mL
same,MIC P. aeruginosa 067,[4]; Table 6D,128 micrograms/mL
same,MIC P. aeruginosa 067,[4]; Table 6F,128 micrograms/mL
same,Log reduction from vehicle (CFU/g),"P. aeruginosa ATCC 27853; dose 0.85 mg/kg drug base IV at 1, 3.5 and 6 h post-infection",1.19 log10 CFU/g
same,Log reduction from vehicle (CFU/g),"P. aeruginosa ATCC 27853; dose 3.4 mg/kg drug base IV at 1, 3.5 and 6 h post-infection",4.23 log10 CFU/g
same,Mean log10 CFU reduction vs. control,"[5]; 0.215 mg/kg/dose free base SC at 2, 6 and 10 h post-infection",0.17 log10 CFU
same,Mean log10 CFU reduction vs. control,"[5]; 0.86 mg/kg/dose free base SC at 2, 6 and 10 h post-infection",1.64 log10 CFU
same,Mean log10 CFU reduction vs. control,"[5]; 2.6 mg/kg/dose free base SC at 2, 6 and 10 h post-infection",5.44 log10 CFU
same,Mean log10 CFU reduction vs. control,"[5]; 8.6 mg/kg/dose free base SC at 2, 6 and 10 h post-infection",6.15 log10 CFU
same,Mean log10 CFU reduction vs. control,"[5]; 17.2 mg/kg/dose free base SC at 2, 6 and 10 h post-infection",6.53 log10 CFU
